Results: ChEMBL document CHEMBL4304772, “Synthesis, in vitro biological evaluation and in silico studies of certain arylnicotinic acids conjugated with aryl (thio)semicarbazides as a novel class of anti-leishmanial agents” (Eur J Med Chem, 2019)
Activity calls are given as the source filed them. No cut-off for these calls is given here.

Legend:
[1] = test system: Leishmania major; experiment: Antileishmanial activity against Leishmania major promastigotes measured after 24 hrs by alamar blue staining based fluorescence assay; format: functional, organism-based
[2] = test system: Leishmania major; experiment: Reversible inhibition of DHFR-TS/PTR1 in Leishmania major promastigote form in presence of excess folic acid
[3] = Cytotoxicity against African green monkey Vero cells after 72 hrs by crystal violet staining based assay; format: cell-based; settings: chlorocebus sabaeus
[4] = test system: Leishmania major; experiment: Antileishmanial activity against Leishmania major amastigotes measured after 72 hrs by resazurin dye based fluorescence assay; format: functional, organism-based
[5] = Selectivity index, ratio of CC50 for African green monkey Vero cells to IC50 for leishmania major promastigote; format: toxicity; settings: read-out: Ratio CC50/IC50
[6] = test system: Leishmania major; experiment: Potency index, ratio of miltefosine IC50 for Leishmania major amastigote form to compound IC50 for Leishmania major amastigote form; format: functional
[7] = test system: Leishmania major; experiment: Inhibition of DHFR-TS/PTR1 in Leishmania major promastigote form assessed as parasite survival at 5.9 uM measured after 48 hrs in presence of 20 uM folic acid relative to control
[8] = test system: Leishmania major; experiment: Inhibition of DHFR-TS/PTR1 in Leishmania major promastigote form assessed as parasite survival at 5.9 uM measured after 48 hrs relative to control
[9] = test system: Leishmania major; experiment: Antileishmanial activity against Leishmania major promastigote form assessed as parasite survival at 5.9 uM measured after 48 hrs in presence of 100 uM folinic acid relative to control; format: functional
[10] = test system: Leishmania major; experiment: Inhibition of DHFR-TS/PTR1 in Leishmania major promastigote form assessed as parasite survival at 5.9 uM measured after 48 hrs in presence of 100 uM folic acid relative to control
[11] = test system: Leishmania major; experiment: Antileishmanial activity against Leishmania major promastigote form assessed as parasite survival at 5.9 uM measured after 48 hrs in presence of 20 uM folinic acid relative to control; format: functional
[12] = test system: Leishmania major; settings: 100 uM
Description: Inhibition of DHFR-TS/PTR1 in Leishmania major promastigote form assessed as parasite survival at 100 uM measured after 48 hrs in presence of 100 uM folic acid relative to control

[13] = test system: Leishmania major; settings: 100 uM; remark: listed apart in the source
Description: Inhibition of DHFR-TS/PTR1 in Leishmania major promastigote form assessed as parasite survival at 100 uM measured after 48 hrs relative to control

[14] = test system: Leishmania major; experiment: Antileishmanial activity against Leishmania major promastigote form assessed as parasite survival at 4.5 uM measured after 48 hrs in presence of 100 uM of folinic acid relative to control; format: functional
[15] = test system: Leishmania major; experiment: Inhibition of DHFR-TS/PTR1 in Leishmania major promastigote form assessed as parasite survival at 4.5 uM measured after 48 hrs relative to control
[16] = test system: Leishmania major; experiment: Inhibition of DHFR-TS/PTR1 in Leishmania major promastigote form assessed as parasite survival at 4.5 uM measured after 48 hrs in presence of 20 uM folic acid relative to control
[17] = test system: Leishmania major; experiment: Inhibition of DHFR-TS/PTR1 in Leishmania major promastigote form assessed as parasite survival at 4.5 uM measured after 48 hrs in presence of 100 uM of folic acid relative to control
[18] = test system: Leishmania major; experiment: Antileishmanial activity against Leishmania major promastigote form assessed as parasite survival at 4.5 uM measured after 48 hrs in presence of 20 uM of folinic acid relative to control; format: functional

reversible inhibition (active/inactive) [2]	SMILES	IC50 [1]	further results
Active	COc1ccc(-c2ccc(C(=O)NNC(=S)Nc3ccc(Cl)cc3)c(C)n2)cc1OC	17.4 µM	–
Active	COc1cc(-c2ccc(C(=O)NNC(=O)Nc3ccccc3)c(C)n2)cc(OC)c1OC	19.8 µM	–
Active	COc1ccc(-c2ccc(C(=O)NNC(=S)Nc3ccccc3)c(C)n2)cc1	12 µM	–
Active	COc1ccc(-c2ccc(C(=O)NNC(=S)Nc3ccc(Cl)cc3)c(C)n2)cc1	16.7 µM	–
Active	COc1ccc(NC(=S)NNC(=O)c2ccc(-c3ccc(OC)cc3)nc2C)cc1	11.4 µM	–
Active	COc1ccc(NC(=O)NNC(=O)c2ccc(-c3cc(OC)c(OC)c(OC)c3)nc2C)cc1	22.5 µM	–
Active	COc1ccc(NC(=S)NNC(=O)c2ccc(-c3cc(OC)c(OC)c(OC)c3)nc2C)cc1	5.8 µM	CC50 at 72 h [3]: 506 µM; IC50 [4]: 5.9 µM; selectivity ratio [5]: 87.2; Ratio IC50 [6]: 1.2 - 2.2
Active	COc1ccc(NC(=S)NNC(=O)c2ccc(-c3ccc(OC)c(OC)c3)nc2C)cc1	6.4 µM	CC50 at 72 h [3]: 632 µM; IC50 [4]: 4.8 µM; selectivity ratio [5]: 98.8; Ratio IC50 [6]: 1.2 - 2.2
Active	COc1ccc(-c2ccc(C(=O)NNC(=O)Nc3ccc(Cl)cc3)c(C)n2)cc1	21.9 µM	–
Active	COc1ccc(-c2ccc(C(=O)NNC(=O)Nc3ccccc3)c(C)n2)cc1OC	16.7 µM	–
Active	COc1ccc(NC(=O)NNC(=O)c2ccc(-c3ccc(OC)cc3)nc2C)cc1	20 µM	–
Active	COc1ccc(NC(=O)NNC(=O)c2ccc(-c3ccc(OC)c(OC)c3)nc2C)cc1	19.7 µM	–
Active	COc1ccc(-c2ccc(C(=O)NNC(=O)Nc3ccc(Cl)cc3)c(C)n2)cc1OC	18.8 µM	–
Active	COc1ccc(-c2ccc(C(=O)NNC(=S)Nc3ccc(C)cc3)c(C)n2)cc1OC	10.2 µM	–
–	CCCCCCCCCCCCCCCCOP(=O)([O-])OCC[N+](C)(C)C [MILTEFOSINE]	7.6 µM	IC50 [4]: 7.3 µM
Active	COc1cc(-c2ccc(C(=O)NNC(=S)Nc3ccc(C)cc3)c(C)n2)cc(OC)c1OC	6.1 µM	CC50 at 72 h [3]: 574 µM; IC50 [4]: 5.8 µM; selectivity ratio [5]: 94.2; Ratio IC50 [6]: 1.2 - 2.2
Active	COc1ccc(-c2ccc(C(=O)NNC(=S)Nc3ccc(C)cc3)c(C)n2)cc1	10.7 µM	Ratio IC50 [6]: 1.2 - 2.2
Active	COc1ccc(-c2ccc(C(=O)NNC(=S)Nc3ccccc3)c(C)n2)cc1OC	9.2 µM	–
Active	COc1cc(-c2ccc(C(=O)NNC(=O)Nc3ccc(Cl)cc3)c(C)n2)cc(OC)c1OC	23.9 µM	–
Active	COc1ccc(-c2ccc(C(=O)NNC(=O)Nc3ccccc3)c(C)n2)cc1	18.6 µM	–

SMILES	reversible inhibition (active/inactive) [2]	IC50 [1]	further results
COc1cc(-c2ccc(C(=O)NNC(=S)Nc3ccccc3)c(C)n2)cc(OC)c1OC	Active	5.7 µM	CC50 at 72 h [3]: 513 µM; IC50 [4]: 4.2 µM; Survival [7]: 72%; selectivity ratio [5]: 90.1; Survival [8]: 25%; Survival [9]: 88%; Survival [10]: 84%; Survival [11]: 75%; Ratio IC50 [6]: 1.2 - 2.2
COc1cc(Cc2cnc(N)nc2N)cc(OC)c1OC	Active	–	Survival [12]: 99%; Survival [13]: 69%
COc1cc(-c2ccc(C(=O)NNC(=S)Nc3ccc(Cl)cc3)c(C)n2)cc(OC)c1OC	Active	4.3 µM	CC50 at 72 h [3]: 523 µM; IC50 [4]: 3.3 µM; selectivity ratio [5]: 122; Survival [14]: 93%; Survival [15]: 23%; Survival [16]: 78%; Survival [17]: 87%; Survival [18]: 81%; Ratio IC50 [6]: 1.2 - 2.2
